Test: mn = molality of the nth substance listed, in mol/kg
Conditions: 101 kPa, Liquid, Vibrating tube method

CCCCCCCCCCCC[N+](C)(C)CCOc1ccccc1.[Br-] [Domiphen bromide] + O
mass density [kg/m3]
Conditions	293.15 K	298.15 K	303.15 K	308.15 K
m1 = 0.04	999.65	998.37	996.97	995.39
m1 = 0.08	1000.98	999.84	998.36	996.78

— the NIST ThermoML archive (doi:10.1016/j.jct.2016.06.018)
